According to paper PMC1847840, “Structural and Chemical Profiling of the Human Cytosolic Sulfotransferases” (PLoS Biology, 2007):

How the values were obtained:
SULT1A1 = target: T1, SULT1A1 (Homo sapiens, UniProt P50225); assay: thermal aggregation shift (StarGazer static light scattering); type: binding; details: 1 mM compound, pH 7.5, with saturating PAP
T1 construct: purified recombinant; clone and tag not described
Excerpt: thermal aggregation shift (StarGazer static light scattering) on SULT1A1

SULT1E1 = target: T2, SULT1E1 (Homo sapiens, UniProt P49888); assay: as above; type: binding; details: 1 mM compound, pH 7.5, with saturating PAP
T2 construct: purified recombinant; clone and tag not described
T2 sequence (P49888 1-294): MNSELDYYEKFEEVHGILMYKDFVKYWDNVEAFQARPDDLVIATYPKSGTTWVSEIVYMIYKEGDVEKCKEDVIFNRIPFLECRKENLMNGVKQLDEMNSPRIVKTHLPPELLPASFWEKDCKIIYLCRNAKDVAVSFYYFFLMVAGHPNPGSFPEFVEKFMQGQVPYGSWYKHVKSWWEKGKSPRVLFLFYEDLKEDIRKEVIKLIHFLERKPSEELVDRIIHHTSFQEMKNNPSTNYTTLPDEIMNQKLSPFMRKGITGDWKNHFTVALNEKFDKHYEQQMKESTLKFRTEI
Excerpt: thermal aggregation shift (StarGazer static light scattering) on SULT1E1

SULT1B1 [1] = target: T3, SULT1B1 (Homo sapiens, UniProt O43704); assay: HPLC PAPS to PAP conversion, inhibition of sulfotransferase activity; type: biochemical; details: 1-naphthol as substrate; PCP 5 to 312 μM; pH 7.5, 37 °C
T3 construct: recombinant, modified pET28a-LIC, bacterial expression; extra Gly-Ser at N-terminus
T3 sequence (O43704 whole entry): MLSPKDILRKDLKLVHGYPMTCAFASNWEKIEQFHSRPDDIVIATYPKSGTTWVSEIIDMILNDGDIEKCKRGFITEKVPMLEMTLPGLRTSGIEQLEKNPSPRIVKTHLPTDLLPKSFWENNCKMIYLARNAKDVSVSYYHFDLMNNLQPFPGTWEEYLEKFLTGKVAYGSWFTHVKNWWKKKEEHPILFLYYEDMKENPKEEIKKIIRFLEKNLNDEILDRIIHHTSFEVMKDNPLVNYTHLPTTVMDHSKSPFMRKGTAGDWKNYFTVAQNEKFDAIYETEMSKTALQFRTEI

SULT1C2 [2] = target: T4, SULT1C2 (Homo sapiens, UniProt O75897); assay: X-ray crystal structure, […] Å; type: binding; details: ternary complex with PAP; substrate pocket
T4 construct: gene SULT1C4; recombinant, modified pET28a-LIC, bacterial expression; extra Gly-Ser at N-terminus
T4 sequence (O75897 whole entry): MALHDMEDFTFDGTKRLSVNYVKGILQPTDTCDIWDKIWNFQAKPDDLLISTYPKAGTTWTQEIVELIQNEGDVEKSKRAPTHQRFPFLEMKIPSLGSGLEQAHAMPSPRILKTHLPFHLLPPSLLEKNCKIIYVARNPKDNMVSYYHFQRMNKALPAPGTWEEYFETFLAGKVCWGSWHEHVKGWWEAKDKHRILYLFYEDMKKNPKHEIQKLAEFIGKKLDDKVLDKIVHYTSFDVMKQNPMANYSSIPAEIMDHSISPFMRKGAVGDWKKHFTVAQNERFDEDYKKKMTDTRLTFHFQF

SULT1B1 [3] = target: T3, SULT1B1; assay: thermal aggregation shift (StarGazer static light scattering); type: binding; details: 1 mM compound
Excerpt: thermal aggregation shift (StarGazer static light scattering) on SULT1B1

SULT1C3 = target: T5, SULT1C3 (Homo sapiens, UniProt Q6IMI6); assay: as above; type: binding; details: 1 mM compound
T5 construct: recombinant, modified pET28a-LIC, bacterial expression; extra Gly-Ser at N-terminus
T5 sequence (Q6IMI6 whole entry): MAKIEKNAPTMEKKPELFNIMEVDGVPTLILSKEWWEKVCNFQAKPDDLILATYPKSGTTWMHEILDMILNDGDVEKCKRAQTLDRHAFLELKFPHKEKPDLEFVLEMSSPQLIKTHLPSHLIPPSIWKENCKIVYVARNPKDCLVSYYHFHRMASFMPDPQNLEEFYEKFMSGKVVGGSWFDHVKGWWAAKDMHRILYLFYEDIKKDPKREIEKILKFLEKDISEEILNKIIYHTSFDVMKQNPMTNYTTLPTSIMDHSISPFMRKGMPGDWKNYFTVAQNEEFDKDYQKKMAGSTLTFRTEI

SULT1C2 [4] = target: T4, SULT1C2; assay: as above; type: binding; details: 1 mM compound, pH 7.5, no other ligand
Excerpt: thermal aggregation shift (StarGazer static light scattering) on SULT1C2

SULT1C1 = target: T6, SULT1C1 (Homo sapiens, UniProt O00338); assay: as above; type: binding; details: 1 mM compound
T6 construct: gene SULT1C2; recombinant, modified pET28a-LIC; extra Gly-Ser at N-terminus
T6 sequence (O00338 whole entry): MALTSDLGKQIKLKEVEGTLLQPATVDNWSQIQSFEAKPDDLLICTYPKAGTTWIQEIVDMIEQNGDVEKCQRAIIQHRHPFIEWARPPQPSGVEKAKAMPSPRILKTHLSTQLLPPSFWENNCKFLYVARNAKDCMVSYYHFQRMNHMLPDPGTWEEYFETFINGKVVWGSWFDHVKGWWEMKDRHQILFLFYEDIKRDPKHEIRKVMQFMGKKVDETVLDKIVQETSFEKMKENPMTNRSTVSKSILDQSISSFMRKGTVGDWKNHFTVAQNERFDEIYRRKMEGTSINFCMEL
Excerpt: thermal aggregation shift (StarGazer static light scattering) on SULT1C1

SULT4A1 = target: T7, SULT4A1 (Homo sapiens, UniProt Q9BR01); assay: as above; type: binding; details: 1 mM compound, pH 7.5, without PAP
T7 construct: recombinant, modified pET28a-LIC, bacterial expression; extra Gly-Ser at N-terminus
T7 sequence (Q9BR01 1-284): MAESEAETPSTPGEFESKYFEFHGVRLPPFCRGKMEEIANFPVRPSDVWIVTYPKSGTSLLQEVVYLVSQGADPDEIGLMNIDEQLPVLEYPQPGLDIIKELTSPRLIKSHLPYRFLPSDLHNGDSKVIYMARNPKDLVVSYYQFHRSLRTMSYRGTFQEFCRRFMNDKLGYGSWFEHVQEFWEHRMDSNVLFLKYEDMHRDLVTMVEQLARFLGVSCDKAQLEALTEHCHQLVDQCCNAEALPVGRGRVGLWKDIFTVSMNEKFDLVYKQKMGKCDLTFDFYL
Excerpt: thermal aggregation shift (StarGazer static light scattering) on SULT4A1

SULT1A3 = target: T8, SULT1A3 (Homo sapiens, UniProt P0DMM9); assay: as above; type: binding; details: 1 mM compound, pH 7.5, with saturating PAP
T8 construct: purified recombinant; clone and tag not described; SULT1A4 encodes the same protein
T8 sequence (P0DMM9 whole entry): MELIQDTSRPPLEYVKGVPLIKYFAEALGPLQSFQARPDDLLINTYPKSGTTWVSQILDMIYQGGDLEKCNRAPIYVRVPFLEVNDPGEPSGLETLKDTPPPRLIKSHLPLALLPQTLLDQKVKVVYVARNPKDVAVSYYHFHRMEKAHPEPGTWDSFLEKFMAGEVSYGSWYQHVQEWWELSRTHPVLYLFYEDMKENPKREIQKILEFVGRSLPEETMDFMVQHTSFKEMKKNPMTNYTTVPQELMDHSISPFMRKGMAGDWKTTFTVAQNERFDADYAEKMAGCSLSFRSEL
Excerpt: thermal aggregation shift (StarGazer static light scattering) on SULT1A3

SULT2A1 = target: T9, SULT2A1 (Homo sapiens, UniProt Q06520); assay: as above; type: binding; details: 1 mM compound, pH 7.5, without PAP
T9 construct: purified recombinant; clone and tag not described
T9 sequence (Q06520 1-285): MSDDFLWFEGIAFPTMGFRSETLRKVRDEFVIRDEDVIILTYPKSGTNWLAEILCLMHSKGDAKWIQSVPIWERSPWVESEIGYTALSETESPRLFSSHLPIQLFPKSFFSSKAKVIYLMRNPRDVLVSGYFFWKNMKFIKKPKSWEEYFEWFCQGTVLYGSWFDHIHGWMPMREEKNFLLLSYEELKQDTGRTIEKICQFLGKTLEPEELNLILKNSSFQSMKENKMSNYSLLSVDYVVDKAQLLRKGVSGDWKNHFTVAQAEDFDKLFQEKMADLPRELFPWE
Excerpt: thermal aggregation shift (StarGazer static light scattering) on SULT2A1

T1 sequence (P50225 whole entry): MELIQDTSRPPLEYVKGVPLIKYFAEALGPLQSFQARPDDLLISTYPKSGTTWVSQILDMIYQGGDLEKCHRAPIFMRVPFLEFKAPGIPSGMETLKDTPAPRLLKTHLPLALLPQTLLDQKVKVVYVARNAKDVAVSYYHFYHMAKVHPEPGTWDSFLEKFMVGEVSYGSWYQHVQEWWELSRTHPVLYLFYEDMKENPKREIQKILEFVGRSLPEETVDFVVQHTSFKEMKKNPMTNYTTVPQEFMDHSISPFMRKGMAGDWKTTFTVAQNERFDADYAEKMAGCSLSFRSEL

O=[N+]([O-])c1cc(Cl)c(O)c(Cl)c1 [2,6-dichloro-4-nitrophenol]
dTagg (SULT1A1): 8.7 °C

C#C[C@]1(O)CC[C@H]2[C@@H]3CCc4cc(O)ccc4[C@H]3CC[C@@]21C [17α-ethinylestradiol]
dTagg (SULT1E1): 4.3 °C

Oc1c(Cl)c(Cl)c(Cl)c(Cl)c1Cl [pentachlorophenol]
% inhibition (SULT1B1 [1]): PCP and DBHD were strong inhibitors of SULT1B1 | X-ray crystal structure, 1.8 Å (SULT1C2 [2]): we determined the structure of SULT1C2 bound to PAP and PCP | dTagg (SULT1B1 [3]; pH 7.5, with saturating PAP): 8.9 °C | dTagg (SULT1A1): 10.2 °C

Nc1ncnc2c1ncn2[C@@H]1O[C@H](COP(=O)(O)O)[C@@H](OP(=O)(O)O)[C@H]1O [3′-phosphoadenosine 5′-phosphate]
dTagg (SULT1C3; pH 7.5, no other ligand): 6.5 °C | dTagg (SULT1C2 [4]): 6.4 °C | dTagg (SULT1C1; pH 7.5, no other ligand): 4.5 °C | dTagg (SULT1B1 [3]; pH 7.5, no other ligand): 7.8 °C

CNC[C@H](O)c1ccc(O)c(O)c1 [epinephrine]
dTagg (SULT4A1): 16 °C

O=C(NN=Cc1coc2c(Cl)cc(Cl)cc2c1=O)c1cc(Br)c(O)c(Br)c1 [DBHD, 3,5-dibromo-4-hydroxy-benzoic acid (6,8-dichloro-4-oxo-4H-chromen-3-ylmethylene) hydrazide]
dTagg (SULT1B1 [3]; pH 7.5, without PAP): 11.4 °C

NCCc1ccc(O)c(O)c1 [dopamine]
dTagg (SULT1A3): 2.3 °C

Oc1ccc(/C=C/c2cc(O)cc(O)c2)cc1 [resveratrol]
dTagg (SULT1C1; pH 7.5, without PAP): 6.6 °C

CCc1ccccc1O [2-ethylphenol]
dTagg (SULT1C3; pH 7.5, with saturating PAP): 2.1 °C

CC(C)NCC(O)c1ccc(O)c(O)c1 (stereo not shown) [isoprenaline]
dTagg (SULT4A1): 18 °C

C[C@H]1CCC[C@H](O)CCC/C=C/c2cc(O)cc(O)c2C(=O)O1 [α-zearalenol]
dTagg (SULT1C3; pH 7.5, with saturating PAP): 2.8 °C

C[C@H](CCC(=O)O)[C@H]1CC[C@H]2[C@@H]3CC[C@@H]4C[C@H](O)CC[C@]4(C)[C@H]3CC[C@]12C [lithocholic acid]
dTagg (SULT2A1): 4.4 °C

O=c1c(O)c(-c2ccc(O)c(O)c2)oc2cc(O)cc(O)c12 [quercetin dihydrate]
dTagg (SULT1C1; pH 7.5, without PAP): 31 °C
